Test results as given in ChEMBL document CHEMBL4819064, “Discovery of new pyrimidopyrrolizine/indolizine-based derivatives as P-glycoprotein inhibitors: Design, synthesis, cytotoxicity, and MDR reversal activities” (Eur J Med Chem, 2021).

Columns and labels:
MRC5 = assay: Cytotoxicity against human MRC5 cells assessed as reduction in cell viability incubated for 72 hrs by MTT assay; conditions: MRC5, 72 h
[1] = Selectivity index, ratio of IC50 for human MRC5 cells to IC50 for human MCF7 cells; assay type: toxicity; conditions: MRC5 cells versus MCF7 cells, read-out: Ratio IC50
[2] = Selectivity index, ratio of IC50 for human MRC5 cells to IC50 for human A2780 cells; assay type: toxicity; conditions: MRC5 cells versus A2780 cells, read-out: Ratio IC50
[3] = Selectivity index, ratio of IC50 for human MRC5 cells to IC50 for human HT29 cells; assay type: toxicity; conditions: MRC5 cells versus HT29 cells, read-out: Ratio IC50
NCI/ADR-RES [4] = assay: Cytotoxicity against human MCF7/ADR cells assessed as reduction in cell viability incubated for 72 hrs by MTT assay
NCI/ADR-RES [5] = assay: Cytotoxicity against human MCF7/ADR cells assessed as reduction in cell viability incubated for 72 hrs in presence of doxorubicin by MTT assay; assay type: functional, cell-based
[6] = Reversal of multidrug resistant activity in human MCF7/ADR cells assessed as reversal fold after 72 hrs by MTT assay; assay type: functional, NCI/ADR-RES
NCI/ADR-RES [7] = assay: Synergistic cytotoxicity against human MCF7/ADR cells assessed as combination index at 0.25 uM after 72 hrs in presence of 0.25 uM doxorubicin by MTT assay; assay type: functional
NCI/ADR-RES [8] = assay: Synergistic cytotoxicity against human MCF7/ADR cells assessed as combination index at 0.25 uM after 72 hrs in presence of 0.5 uM doxorubicin by MTT assay; assay type: functional
NCI/ADR-RES [9] = assay: Synergistic cytotoxicity against human MCF7/ADR cells assessed as combination index at 0.5 uM after 72 hrs in presence of 0.5 uM doxorubicin by MTT assay; assay type: functional
NCI/ADR-RES [10] = assay: Synergistic cytotoxicity against human MCF7/ADR cells assessed as combination index at 0.5 uM after 72 hrs in presence of 1 uM doxorubicin by MTT assay; assay type: functional
NCI/ADR-RES [11] = assay: Synergistic cytotoxicity against human MCF7/ADR cells assessed as combination index at 1 uM after 72 hrs in presence of 0.25 uM doxorubicin by MTT assay; assay type: functional
NCI/ADR-RES [12] = assay: Synergistic cytotoxicity against human MCF7/ADR cells assessed as combination index at 1 uM after 72 hrs in presence of 0.5 uM doxorubicin by MTT assay; assay type: functional
NCI/ADR-RES [13] = assay: Synergistic cytotoxicity against human MCF7/ADR cells assessed as combination index at 1 uM after 72 hrs in presence of 1 uM doxorubicin by MTT assay; assay type: functional
[14] = molecular target: T1, ATP-dependent translocase ABCB1 (Homo sapiens, UniProt P08183); assay: Inhibition of P-gp activity in human MCF7/ADR cells at 250 nM after 72 hrs by RT-PCR analysis relative to control; assay type: cell-based, NCI/ADR-RES; conditions: nci/adr-res, 72 h, 0.25 µM
[15] = molecular target: T1, ATP-dependent translocase ABCB1; assay: Inhibition of P-gp activity in human MCF7/ADR cells at 500 nM after 72 hrs by RT-PCR analysis relative to control; assay type: cell-based, NCI/ADR-RES; conditions: nci/adr-res, 72 h, 0.5 µM
[16] = molecular target: T1, ATP-dependent translocase ABCB1; assay: Inhibition of P-gp activity in human MCF7/ADR cells at 1000 nM after 72 hrs by RT-PCR analysis relative to control; assay type: cell-based, NCI/ADR-RES; conditions: nci/adr-res, 72 h, 1 µM
[17] = molecular target: T1, ATP-dependent translocase ABCB1; assay: Inhibition of P-gp in human MCF7/ADR cells assessed as increase in Rho123 accumulation measured after 2 hrs by flow cytometry; assay type: cell-based; conditions: nci/adr-res
MCF7 [18] = assay: Cell cycle arrest in human MCF7 cells assessed as accumulation at pre-G1 phase at 0.125 uM incubated for 72 hrs by PI staining based flow cytometric analysis (reference value: 1.6 +/- 0.2 %); assay type: functional
MCF7 [19] = assay: Cell cycle arrest in human MCF7 cells assessed as accumulation at pre-G1 phase at 0.5 uM incubated for 72 hrs by PI staining based flow cytometric analysis (reference value: 1.6 +/- 0.2 %); assay type: functional
MCF7 [20] = assay: Cell cycle arrest in human MCF7 cells assessed as accumulation at G1 phase at 0.125 uM incubated for 72 hrs by PI staining based flow cytometric analysis (reference value: 56.9 +/- 5.6 %); assay type: functional
MCF7 [21] = assay: Cell cycle arrest in human MCF7 cells assessed as accumulation at G1 phase at 0.250 uM incubated for 72 hrs by PI staining based flow cytometric analysis (reference value: 56.9 +/- 5.6 %); assay type: functional; conditions: dose 0.25 µM
MCF7 [22] = assay: Cell cycle arrest in human MCF7 cells assessed as accumulation at G1 phase at 0.5 uM incubated for 72 hrs by PI staining based flow cytometric analysis (reference value: 56.9 +/- 5.6 %); assay type: functional
MCF7 [23] = assay: Cell cycle arrest in human MCF7 cells assessed as accumulation at S phase at 0.250 uM incubated for 72 hrs by PI staining based flow cytometric analysis (reference value: […] +/- 2.6 %); assay type: functional; conditions: dose 0.25 µM
MCF7 [24] = assay: Cell cycle arrest in human MCF7 cells assessed as accumulation at G2/M phase at 0.125 uM incubated for […] staining based flow cytometric analysis (reference value: 15 +/- 1.5 %); assay type: functional
MCF7 [25] = assay: Cell cycle arrest in human MCF7 cells assessed as accumulation at G2/M phase at 0.250 uM incubated for 72 hrs by PI staining based flow cytometric analysis (reference value: 15 +/- 1.5 %); assay type: functional; conditions: dose 0.25 µM
MCF7 [26] = assay: Induction of apoptosis in human MCF7 cells assessed as viable cells at 0.125 uM after 72 hrs by Annexin V-FITC/propidium iodide staining-based flow cytometric analysis (reference value: 86.4 %); assay type: functional; conditions: read-out: Activity
MCF7 [27] = assay: Induction of apoptosis in human MCF7 cells assessed as early apoptotic cells at 0.125 uM after 72 hrs by Annexin V-FITC/propidium iodide staining-based flow cytometric analysis (reference value: 4.6 %); assay type: functional
MCF7 [28] = assay: Induction of apoptosis in human MCF7 cells assessed as necrotic cells at 0.125 uM after 72 hrs by Annexin V-FITC/propidium iodide staining-based flow cytometric analysis (reference value: 6.2 %); assay type: functional
MCF7 [29] = assay: Induction of apoptosis in human MCF7 cells assessed as early apoptotic cells at 0.250 uM after 72 hrs by Annexin V-FITC/propidium iodide staining-based flow cytometric analysis (reference value: 4.6 %); assay type: functional; conditions: dose 0.25 µM
MCF7 [30] = assay: Induction of apoptosis in human MCF7 cells assessed as late apoptotic cells at 0.250 uM after 72 hrs by Annexin V-FITC/propidium iodide staining-based flow cytometric analysis (reference value: 2.8 %); assay type: functional; conditions: dose 0.25 µM
MCF7 [31] = assay: Induction of apoptosis in human MCF7 cells assessed as necrotic cells at 0.250 uM after 72 hrs by Annexin V-FITC/propidium iodide staining-based flow cytometric analysis (reference value: 6.2 %); assay type: functional; conditions: dose 0.25 µM
MCF7 [32] = assay: Induction of apoptosis in human MCF7 cells assessed as viable cells at 0.5 uM after 72 hrs by Annexin V-FITC/propidium iodide staining-based flow cytometric analysis (reference value: 86.4 %); assay type: functional; conditions: read-out: Activity
MCF7 [33] = assay: Induction of apoptosis in human MCF7 cells assessed as early apoptotic cells at 0.5 uM after 72 hrs by Annexin V-FITC/propidium iodide staining-based flow cytometric analysis (reference value: 4.6 %); assay type: functional
MCF7 [34] = assay: Induction of apoptosis in human MCF7 cells assessed as necrotic cells at 0.5 uM after 72 hrs by Annexin V-FITC/propidium iodide staining-based flow cytometric analysis (reference value: 6.2 %); assay type: functional

T1 sequence (P08183 whole entry): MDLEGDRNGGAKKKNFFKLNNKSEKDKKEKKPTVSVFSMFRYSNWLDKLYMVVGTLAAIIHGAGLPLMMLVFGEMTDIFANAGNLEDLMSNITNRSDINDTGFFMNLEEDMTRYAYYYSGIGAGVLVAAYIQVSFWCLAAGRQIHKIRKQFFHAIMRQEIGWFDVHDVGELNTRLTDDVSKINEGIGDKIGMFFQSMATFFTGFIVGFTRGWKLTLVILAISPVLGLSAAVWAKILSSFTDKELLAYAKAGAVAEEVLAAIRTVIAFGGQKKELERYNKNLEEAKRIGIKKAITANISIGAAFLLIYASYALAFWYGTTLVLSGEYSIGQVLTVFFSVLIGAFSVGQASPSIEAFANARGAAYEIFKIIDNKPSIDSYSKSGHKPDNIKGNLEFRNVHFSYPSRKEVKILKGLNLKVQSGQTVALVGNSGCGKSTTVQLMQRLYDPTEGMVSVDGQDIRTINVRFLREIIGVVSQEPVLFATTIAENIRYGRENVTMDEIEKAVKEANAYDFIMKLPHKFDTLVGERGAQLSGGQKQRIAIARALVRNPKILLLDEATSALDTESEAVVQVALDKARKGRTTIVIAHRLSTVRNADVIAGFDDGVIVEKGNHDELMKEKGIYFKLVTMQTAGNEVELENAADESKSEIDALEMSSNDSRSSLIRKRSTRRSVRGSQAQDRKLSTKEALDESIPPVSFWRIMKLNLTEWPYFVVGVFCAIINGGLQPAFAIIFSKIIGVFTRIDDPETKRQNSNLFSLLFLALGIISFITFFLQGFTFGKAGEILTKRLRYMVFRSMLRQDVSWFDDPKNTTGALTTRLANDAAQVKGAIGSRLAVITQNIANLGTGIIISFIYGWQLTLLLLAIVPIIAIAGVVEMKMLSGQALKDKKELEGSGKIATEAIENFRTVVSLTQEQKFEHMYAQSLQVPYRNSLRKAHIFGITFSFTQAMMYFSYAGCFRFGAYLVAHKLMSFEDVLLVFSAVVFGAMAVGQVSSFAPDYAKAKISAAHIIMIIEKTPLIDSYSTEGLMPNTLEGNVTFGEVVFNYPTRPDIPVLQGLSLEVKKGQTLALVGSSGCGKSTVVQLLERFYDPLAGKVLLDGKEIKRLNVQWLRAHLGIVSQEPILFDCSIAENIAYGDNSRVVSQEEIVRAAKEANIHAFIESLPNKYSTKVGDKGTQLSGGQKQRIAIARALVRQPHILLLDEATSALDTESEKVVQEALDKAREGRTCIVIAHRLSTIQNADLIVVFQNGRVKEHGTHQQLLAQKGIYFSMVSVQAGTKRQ

Molecule `N#Cc1c2n(c3c(=O)n(-c4ccccc4)cnc13)CCCC2` has an IC50 (MRC5) of 1450 nM, a selectivity ratio [1] of 4.83 and a selectivity ratio [2] of 24.2. It also gave a selectivity ratio [3] of 1.36, an IC50 (NCI/ADR-RES [4]) of 6.01 µM and an IC50 (NCI/ADR-RES [5]) of 1170 nM. The “fold change (FC)” value [6] was 15.57, the CI (NCI/ADR-RES [7]) was 0.927 and the CI (NCI/ADR-RES [8]) was 0.631. For the same molecule, the CI (NCI/ADR-RES [9]) was 1.7, the CI (NCI/ADR-RES [10]) was 1.552 and the CI (NCI/ADR-RES [11]) was 0.211. The CI (NCI/ADR-RES [12]) was 0.08, the CI (NCI/ADR-RES [13]) was 0.025 and the “inhibition (INH)” value [14] was 176%. For the same molecule, the “inhibition (INH)” value [15] was 190%, the “inhibition (INH)” value [16] was 220% and the “inhibition (INH)” value [17] was “Dose-Dependent Effect”. It also gave an Activity (MCF7 [18]) of 1.6%, an Activity (MCF7 [19]) of 1.6% and an Activity (MCF7 [20]) of 61%. For the same molecule, the Activity (MCF7 [21]) was 75.2%, the Activity (MCF7 [22]) was 77.8% and the Activity (MCF7 [23]) was 5.5%. It also gave an Activity (MCF7 [24]) of 15.5%, an Activity (MCF7 [25]) of 18% and a viability at 0.125 µM (MCF7 [26]) of 86.3%. For the same molecule, the Activity (MCF7 [27]) was 6.6%, the Activity (MCF7 [28]) was 5.4% and the Activity (MCF7 [29]) was 7.5%. For the same molecule, the Activity (MCF7 [30]) was 13.6%, the Activity (MCF7 [31]) was 10.7% and the viability at 0.5 µM (MCF7 [32]) was 70.3%. The Activity (MCF7 [33]) was 22.8% and the Activity (MCF7 [34]) was 4.8%.
